Measurements from patent US20160008367A1, “Combination Comprising a Cyclin Dependent Kinase 4 or Cyclin Dependent Kinase (CDK4/6) Inhibitor for Treating Cancer” (Novartis AG, priority 2010, published 2016).

Assays:
[1] = tested on: PANC-1 pancreatic carcinomas; assay: PANC-1 pancreatic carcinoma xenograft model; type: in vivo, nude mice; conditions: PANC-1 xenograft, po x 21 days
Experimental: The PANC-1 pancreatic carcinomas used for implantation were maintained by serial engraftment in nude mice. […] Tumor size, in mm3, was calculated from: Tumor Volume=(w2×l)/2 where w=width and l=length, in mm, of the tumor. […] Group 1 mice received the Compound A1 and Compound B1 vehicles, and served as controls for all analyses. […] Each animal was euthanized when tumor volume reached 1200 mm3, or on the last day of the study ([…]). For each animal whose tumor reached the endpoint volume, the time to endpoint (TTE) was calculated by the following equation: TTE=(log10(endpoint volume)-b)/m Where TTE is expressed in days, endpoint volume is in mm3, b is the intercept, and m is the slope of the line obtained by linear regression of a log-transformed tumor growth data set. […] The calculated TTE is usually less than the day on which an animal is euthanized for tumor size. […] Treatment efficacy was determined from tumor growth delay (TGD), which is defined as the increase in the median TTE for a treatment group compared with the control group: TGD=T-C, expressed in days, or as a percentage of the median TTE of the control group: % TGD=[(T-C)/C]×100, where: T=median TTE for a treatment group, C=median TTE for the designated control group.

[2] = tested on: Jeko-1 mantle cell lymphoma cells; assay: Cell Titer-Glo cell viability assay, single agents and combinations; type: cell-based; conditions: 72 hrs
Experimental: The Cell Titer-Glo Luminscent Cell Viability Assay (Promega#G7572) generates a luminescent signal that is proportional to the number of metabolically active cells present in a reaction, based on the quantitation of ATP. Cell Titer-Glo Reagent was prepared by thawing a vial of Cell Titer-Glo Buffer in a 37° C. water bath. The entire bottle of buffer was then added to the bottle of lyophilized Cell Titer-Glo Substrate provided in the kit. Lyophilized substrate was allowed to dissolve; the solution was then mixed by inversion and was ready for use. Jeko-1 cells were diluted to a density of 200,000 cells/mL and cultured in T250 flask. Before treatment (time 0), 3×100 micro liter aliquots were removed and placed into a black 96 well plate with clear bottom (Costar#3904). 50 uL of CTG reagent was added to each well. The plate was placed on an Orbital Shaker, protected from light and incubated using setting 4 for 30 minutes at RT. The plate was then read using the Envision Luminometer, and results exported. The cells remaining in the T250 flasks were either left untreated or treated with single agents or in combinations. […] Results were exported and analyzed using Microsoft Excel. The percentage of viable cells as compared to control growth was calculated using following equation: […]
A is the CTG read under treatment condition
B is the CTG read for Time 0 cells
C is CTG read for 72 hr untreated cells […]

Jeko-1 xenograft = assay: Jeko-1 mantle cell lymphoma xenograft model; type: in vivo; conditions: 35 day treatment period, single agents
Excerpt: A Jeko-1 xenograft model was used to measure anti-tumor activity in a 35 day treatment period of Compound A1, Compound B1, and the combination of Compounds A1 and B1. Significant anti-tumor activity was observed.

Compound	anti-tumor activity ([1]; Compound B1 10 mg/kg qd)	% cell growth compared to the vehicle control ([2]; mTOR inhibitor alone at 1, 2.5 and 5 nM (all three concentrations))	anti-tumor activity (Jeko-1 xenograft)	anti-tumor activity ([1]; Compound A1 250 mg/kg qd)	% cell growth compared to the vehicle control ([2]; 100 nM CDK4/6 inhibitor alone)
COC1CC2CC[C@@H](C)C(O)(O2)C(=O)C(=O)N2CCCCC2C(=O)O[C@H](C(C)C[C@@H]2CCC(OCCO)[C@H](OC)C2)CC(=O)C(C)/C=C(\C)C(O)C(OC)C(=O)[C@H](C)CC(C)/C=C/C=C/C=C/1C (stereo in doubt) [Compound B1, (1R,9S,12S,15R,16E,18R,19R,21R,23S,24E,26E,28E,30S,32S,35R)-1,18-dihydroxy-12-{(1R)-2-[(1S,3R,4R)-4-(2-hydroxyethoxy)-3-methoxycyclohexyl]-1-methylethyl}-19,30-dimethoxy-15,17,21,23,29,35-hexamethyl-11,36-dioxa-4-aza-tricyclo[30.3.1.04,9]hexatriaconta-16,24,26,28-tetraene-2,3,10,14,20-pentaone]	neither Compound A1 nor Compound B1 had significant anti-tumor activity	approximately 30%	had anti-tumor activity	–	–
CN(C)C(=O)c1cc2cnc(Nc3ccc(N4CCNCC4)cn3)nc2n1C1CCCC1 [Compound A1, 7-Cyclopentyl-2-(5-piperazin-1-yl-pyridin-2-ylamino)-7H-pyrrolo[2,3-d]pyrimidine-6-carboxylic acid dimethylamide]	–	–	had anti-tumor activity	neither Compound A1 nor Compound B1 had significant anti-tumor activity	70%
